From patent US10975167B2, “Method to reduce pulmonary arterial hypertension by administering inhibitors of nicotinamide phosphoribotransferase” (Arizona Board of Regents on Behalf of the University of …, priority 2017, dated 2021)

Experiments:
[1] = target: T1, NAMPT (Homo sapiens, UniProt P43490); assay: CycLex NAMPT Colorimetric Assay, NAMPT enzymatic activity; assay type: biochemical; details: three doses 0.1, 1, 10 uM
T1 construct: purchased MBL International (Woburn, Mass.)
Experimental: CycLex NAMPT Colorimetric Assay Kit was purchased from MBL International (Woburn, Mass.) and utilized to screen the effect of putative NAMPT inhibitors on NAMPT enzymatic activity. Three doses (0.1, 1, 10 uM) of each NAMPT inhibitors was used following the manufacturer's instruction.

[2] = test system: MCT-induced PH in rats; assay: MCT-PH model, FK-866 analogs as preventive therapy; assay type: in vivo; details: for hypertrophy-ratio of RV and LV plus septal-S weight (RVH-RV) / right ventricular systolic pressure (RVSP): preliminary studies in MCT-PH
Experimental: FIG. 10A is a bar graph showing normalized NAMPT activity in the present of FK866 and FK analogues MS-1-82, Rari049, Alp-135 at 0.1, 1, and 10 μM concentrations. FIG. 10B is a bar graph showing RVSP in MCT-induced PH in rats and in MCT-induced PH in rats with Rari049 (2.5 mg/kg, i.p. BID, ×2 wks) (RVSP-right ventricular systolic pressure, RVH-RV hypertrophy-ratio of RV and LV plus septal-S weight).

[3] = test system: Human pulmonary artery endothelial cells (EC); assay: TNF-α-induced apoptosis / PARP-1 cleavage in human lung endothelial cells; assay type: cell-based
Experimental: Human pulmonary artery endothelial cells (EC) were obtained from Lonza (Walkersville Md.) and were cultured in the manufacturer's recommended endothelial growth medium-2 (EGM-2). Cells were grown at 37° C. in a 5% CO2 incubator, and passages 6 to 9 were used for experiments. Media was changed one day before experimentation. For RNA interference, siRNAs were transfected into EC at a final concentration of 100 nM for 72 hrs. Protein quantification and Western blot analysis were performed according to standard procedures.
(B) ECs were pre-treated (6 hrs) with either vehicle (DMSO) or with a caspase-3 inhibitor (z-DEVD-fmk, 20 μM) prior to 24 hr challenge with TNF-α (30 ng/ml), FasL (100 ng/ml) or tBHP (5 mM). […] (C) ECs were transfected with myc-tagged NAMPT plasmid resulting in marked NAMPT overexpression. […] Error bars indicate SEM of three independent experiments.

[4] = test system: hPASMCs; assay: TUNEL apoptosis assay in hPASMCs; assay type: cell-based, human; details: FK866 10 μM, 24 hrs
Experimental: hPASMCs were cultured on a coverslip in a 6-well cell culture plate. H2O2 (100 μM, Sigma, Cat. #ab66110) was used as an apoptosis stimulus for hPASMCs.
When cell confluence reached 95%, cells were starved for 3 hrs and stimulated by H2O2, FK866 (10 μM), H2O2+rhNAMPT (20 μg/ml) or H2O2+rhNAMPT (20 μg/ml) with FK866 (10 μM) for 24 hrs. Cell apoptosis was examined using an in situ BrdU-Red DNA fragmentation (TUNEL) kit. The cells on the coverslips were examined using a Nikon Eclipse E800 fluorescence microscope, and the images were processed by MetaMorph software (Molecular Devices, Inc.). Approximately ten images were taken from each condition, and over 500 cells were counted according to DAPI staining.

[5] = MCT-PH, 2.5 mg/kg, i.p. BID, ×2 wks

T1 sequence (P43490 whole entry): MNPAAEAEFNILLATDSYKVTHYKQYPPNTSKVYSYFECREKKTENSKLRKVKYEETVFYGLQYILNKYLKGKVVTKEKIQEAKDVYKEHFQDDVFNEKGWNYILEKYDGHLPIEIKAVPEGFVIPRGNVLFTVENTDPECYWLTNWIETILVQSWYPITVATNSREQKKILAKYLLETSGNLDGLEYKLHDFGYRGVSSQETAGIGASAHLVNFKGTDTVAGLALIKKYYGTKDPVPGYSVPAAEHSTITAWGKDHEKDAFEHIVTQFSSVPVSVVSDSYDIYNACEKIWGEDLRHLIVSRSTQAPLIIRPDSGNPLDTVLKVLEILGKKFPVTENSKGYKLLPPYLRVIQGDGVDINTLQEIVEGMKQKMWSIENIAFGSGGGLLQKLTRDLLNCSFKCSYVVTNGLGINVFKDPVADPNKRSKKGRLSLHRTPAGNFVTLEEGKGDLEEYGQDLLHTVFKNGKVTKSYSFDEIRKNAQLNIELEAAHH

**Q.** Which results are given for `O=C(/C=C/c1cccnc1)NCCCCCCn1c2ccccc2c2ccccc21` [Alp135]?
**A.** NAMPT enzyme inhibitory properties [1]: excellent dose-dependent enzyme inhibitory properties; hypertrophy-ratio of RV and LV plus septal-S weight (RVH-RV) [2]: reducing; right ventricular systolic pressure (RVSP) [2]: reducing

**Q.** How did the “TNFα-induced EC apoptosis” value ([3]; human lung EC) turn out when `O=C(/C=C/c1cccnc1)NCCCCC1CCN(C(=O)c2ccccc2)CC1` [FK866, (E)-N-[4-(1-Benzoylpiperidin-4-yl)butyl]-3-pyridin-3-ylprop-2-enamide, reference compound] was run?
**A.** failed to alter

**Q.** What about the “hPASMC apoptosis (TUNEL positive cells)” value [4] of the same compound?
**A.** promotes

**Q.** For `O=C(/C=C/c1cccnc1)NCCCCCCNC(=O)c1cccnc1` [MS-1-82], which “NAMPT enzyme inhibitory properties” value [1] is on record?
**A.** excellent dose-dependent enzyme inhibitory properties

**Q.** Which “NAMPT enzyme inhibitory properties” value [1] does the source give for `O=C(/C=C/c1cccnc1)NCCCCCCn1c(-c2ccccc2)cc2ccccc21` [Rari049] here?
**A.** excellent dose-dependent enzyme inhibitory properties

**Q.** And the RVH [2, 5]?
**A.** reducing

**Q.** And the RVSP [2, 5]?
**A.** reducing

**Q.** What about the “hypertrophy-ratio of RV and LV plus septal-S weight (RVH-RV)” value [2] of the same compound?
**A.** reducing

**Q.** What about the “right ventricular systolic pressure (RVSP)” value [2] of the same compound?
**A.** reducing

**Q.** How did the “PARP-1 cleavage induced by TNF-α” value ([3]; pre-incubated 6 hrs, 20 μM, TNF-α 30 ng/ml 24 hrs, vs vehicle (DMSO)) turn out when z-DEVD-fmk was run?
**A.** significantly reduced
